{"source": "patent EP3800188A1", "about": "“SUBSTITUTED PYRAZOLOPYRIMIDINES AS IRAK4 INHIBITORS” (Bayer AG, priority 2019, dated 2021)", "data": [{"molecular_target": "T1, human IRAK4 (Homo sapiens, UniProt Q9NWZ3)", "T1 construct": "GST (N); made in house; host or cells: baculovirus-infected Hi5 (BTI-TN-5B1-4) insect cells", "T1 sequence (Q9NWZ3 1-460)": "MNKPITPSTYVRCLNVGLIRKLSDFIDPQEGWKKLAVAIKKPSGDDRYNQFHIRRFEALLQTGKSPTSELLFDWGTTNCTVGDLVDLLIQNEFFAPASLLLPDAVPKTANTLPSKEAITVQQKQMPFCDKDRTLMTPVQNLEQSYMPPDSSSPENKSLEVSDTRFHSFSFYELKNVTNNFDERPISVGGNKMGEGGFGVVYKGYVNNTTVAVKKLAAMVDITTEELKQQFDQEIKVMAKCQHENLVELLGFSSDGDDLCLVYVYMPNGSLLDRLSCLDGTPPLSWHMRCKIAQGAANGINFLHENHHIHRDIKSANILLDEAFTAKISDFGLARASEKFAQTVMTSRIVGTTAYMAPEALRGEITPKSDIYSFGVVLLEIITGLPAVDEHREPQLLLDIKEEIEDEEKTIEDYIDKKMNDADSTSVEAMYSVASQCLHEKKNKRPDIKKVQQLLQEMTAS", "assay": "Human IRAK4 kinase activity inhibition assay (IRAK4 TR-FRET assay)", "type": "biochemical", "settings": "1 mM ATP, GST-human IRAK4, average or median values", "method": "The IRAK4-inhibitory activity of the inventive substances was measured in the IRAK4 TR-FRET assay (TR-FRET = Time Resolved Fluorescence Resonance Energy Transfer) described hereinafter.\nRecombinant fusion protein from N-terminal GST (glutathione S-transferase) and human IRAK4, expressed in baculovirus-infected insect cells (Hi5, BTI-TN-5B1-4, cell line purchased from Invitrogen, catalogue No. B855-02) and purified via affinity chromatography, was used as enzyme. The substrate used for the kinase reaction was the biotinylated peptide biotin-Ahx-[…] (C-terminus in amide form) which can be purchased, for example, from Biosyntan GmbH (Berlin-Buch). For the assay, 11 different concentrations in the range from 20 µM to 0.073 nM were prepared from a 2 mM DMSO solution of the test substance. 50 nl of the respective 100fold concentrated test compound solutions in DMSO were pipetted into a black low-volume 384-well microtitre plate or a black 1536-well microtiter plate (both Greiner Bio-One, Frickenhausen, Germany), 2 µl of a solution of IRAK4 in assay buffer [50 mM HEPES pH 7.5, 5mM MgCl2, 1.0 mM dithiothreitol, 30 µM activated sodium orthovanadate, 0.1% (w/v) of bovine gamma-globulin (BGG) 0.04% (v/v) nonidet-P40 (Sigma)] were added and the mixture was incubated for 15 min to allow prebinding of the substances to the enzyme prior to the kinase reaction. […] The concentration of the IRAK4 was adjusted to the respective activity of the enzyme and set such that the assay was carried out in the linear range. Typical concentrations were in the order of about 0.2 nM. The reaction was stopped by addition of 5 µl of a solution of TR-FRET detection reagents [0.1 µM streptavidin-XL665 (Cisbio Bioassays; France, catalogue No. 610SAXLG)] and 1.5 nM anti-phosphoserine antibody [Merck Millipore, \"STK Antibody\", catalogue No. 35-002] and 0.6 nM LANCE EU-W1024-labelled anti-mouse-IgG antibody (Perkin-Elmer, product No. AD0077; alternatively, it is possible to use a terbium cryptate-labelled anti-mouse-IgG antibody from Cisbio Bioassays) in aqueous EDTA solution (100 mM EDTA, 0.4 % [w/v] bovine serum albumin [BSA] in 25 mM HEPES pH 7.5). The resulting mixture was incubated at 22°C for 1 h to allow formation of a complex of the biotinylated phosphorylated substrate and the detection reagents. The amount of the phosphorylated substrate was then evaluated by measuring the resonance energy transfer from europium chelate-labelled anti-mouse-IgG antibody to streptavidin-XL665. To this end, the fluorescence emissions at 620 nm and 665 nm were measured after excitation at 350 nm in a TR-FRET measuring instrument, for example a Rubystar (BMG Labtechnologies, Offenburg, Germany) or a Viewlux (Perkin-Elmer). The ratio of the emissions at 665 nm and 622 nm was taken as a measure of the amount of phosphorylated substrate. The data were normalized (enzyme reaction without test substance = 0% inhibition; all other assay components but no enzyme = 100% inhibition).", "units": {"IC50": "nM"}, "values": [{"smiles": "CC(C)(O)C1CCN(c2nc(NC3CCCS(=O)(=O)C3)nc3c2cnn3-c2cccc(C(F)(F)F)c2)CC1", "note": "(centres unmarked) [Example I-10, 2-(1-{6-[(1,1-dioxidotetrahydro-2H-thiopyran-3-yl)amino]-1-[3-(trifluoromethyl)phenyl]-1H-pyrazolo[3,4-d]pyrimidin-4-yl)piperidin-4-yl)propan-2-ol]", "IC50": 131}, {"smiles": "CC(C)(O)C1CCN(c2nc(N[C@H]3CCCNC3=O)nc3c2cnn3-c2cccc(C(F)(F)F)c2)CC1", "note": "[Example I-11-1, (3S)-3-({4-[4-(2-hydroxypropan-2-yl)piperidin-1-yl]-1-[3-(trifluoromethyl)phenyl]-1H-pyrazolo[3,4-d]pyrimidin-6-yl}amino)piperidin-2-one]", "IC50": 139}, {"smiles": "CC(C)(O)C1CCN(c2nc(N[C@@H]3CCCNC3=O)nc3c2cnn3-c2cccc(C(F)(F)F)c2)CC1", "note": "[Example I-11-2, (3R)-3-({4-[4-(2-hydroxypropan-2-yl)piperidin-1-yl]-1-[3-(trifluoromethyl)phenyl]-1H-pyrazolo[3,4-d]pyrimidin-6-yl}amino)piperidin-2-one]", "IC50": 151}, {"smiles": "CC(C)(O)C1CCN(c2nc(N[C@H]3CCNC3=O)nc3c2cnn3-c2cccc(C(F)(F)F)c2)CC1", "note": "[Example I-12, (3S)-3-({4-[4-(2-hydroxypropan-2-yl)piperidin-1-yl]-1-[3-(trifluoromethyl)phenyl]-1H-pyrazolo[3,4-d]pyrimidin-6-yl}amino)pyrrolidin-2-one]", "IC50": 51.2}, {"smiles": "CN1CC[C@@H](Nc2nc(N3CCC(C(C)(C)O)CC3)c3cnn(-c4cccc(C(F)(F)F)c4)c3n2)C1", "note": "[Example I-13-2, 2-[1-(6-{[(3R)-1-methylpyrrolidin-3-yl]amino}-1-[3-(trifluoromethyl)phenyl]-1H-pyrazolo[3,4-d]pyrimidin-4-yl)piperidin-4-yl]propan-2-ol]", "IC50": 32.7}, {"smiles": "CC(C)(O)C1CCN(c2nc(N[C@@H]3CCNC3=O)nc3c2cnn3-c2cccc(C(F)(F)F)c2)CC1", "note": "[Example I-15, (3R)-3-({4-[4-(2-hydroxypropan-2-yl)piperidin-1-yl]-1-[3-(trifluoromethyl)phenyl]-1H-pyrazolo[3,4-d]pyrimidin-6-yl}amino)pyrrolidin-2-one]", "IC50": 62}, {"smiles": "CC(C)(O)C1CCN(c2nc(N[C@H]3CCOC3)nc3c2cnn3-c2cccc(C(F)(F)F)c2)CC1", "note": "[Example I-16-1, 2-(1-{6-[(3S)-tetrahydrofuran-3-ylamino]-1-[3-(trifluoromethyl)phenyl]-1H-pyrazolo[3,4-d]pyrimidin-4-yl}piperidin-4-yl)propan-2-ol]", "IC50": 19.4}, {"smiles": "CC(C)(O)C1CCN(c2nc(N[C@@H]3CNC(=O)C3(C)C)nc3c2cnn3-c2cccc(C(F)(F)F)c2)CC1", "note": "[Example I-17, (4S)-4-({4-[4-(2-hydroxypropan-2-yl)piperidin-1-yl]-1-[3-(trifluoromethyl)phenyl]-1H-pyrazolo[3,4-d]pyrimidin-6-yl}amino)-3,3-dimethylpyrrolidin-2-one]", "IC50": 442}, {"smiles": "CCC1(O)CN(c2nc(N[C@H]3CCN(C)C3)nc3c2cnn3-c2cccc(C(F)(F)F)c2)C1", "note": "[Example I-18, 3-ethyl-1-(6-{[(3S)-1-methylpyrrolidin-3-yl]amino}-1-[3-(trifluoromethyl)phenyl]-1H-pyrazolo[3,4-d]pyrimidin-4-yl)azetidin-3-ol]", "IC50": 18.4}, {"smiles": "CCC1(O)CN(c2nc(NC3CCS(=O)(=O)CC3)nc3c2cnn3-c2cccc(C(F)(F)F)c2)C1", "note": "[Example I-19, 1-{6-[(1,1-dioxidotetrahydro-2H-thiopyran-4-yl)amino]-1-[3-(trifluoromethyl)phenyl]-1H-pyrazolo[3,4-d]pyrimidin-4-yl}-3-ethlazetidin-3-ol]", "IC50": 27}, {"smiles": "O=C1C[C@@H](Nc2nc(N3C[C@H](O)[C@@H](O)C3)c3cnn(-c4cccc(C(F)(F)F)c4)c3n2)CN1", "note": "[Example I-20-1, (4R)-4-({4-[(3S,4S)-3,4-dihydroxypyrrolidin-1-yl]-1-[3-(trifluoromethyl)phenyl]-1H-pyrazolo[3,4-d]pyrimidin-6-yl}amino)pyrrolidin-2-one]", "IC50": 278}, {"smiles": "O=C1C[C@H](Nc2nc(N3C[C@H](O)[C@@H](O)C3)c3cnn(-c4cccc(C(F)(F)F)c4)c3n2)CN1", "note": "[Example I-20-2, (4S)-4-({4-[(3S,4S)-3,4-dihydroxypyrrolidin-1-yl]-1-[3-(trifluoromethyl)phenyl]-1H-pyrazolo[3,4-d]pyrimidin-6-yl}amino)pyrrolidin-2-one]", "IC50": 14.9}, {"smiles": "O=C1C[C@H](Nc2nc(N3CC[C@@H](N4CCOCC4)C3)c3cnn(-c4cccc(C(F)(F)F)c4)c3n2)CN1", "note": "[Example I-21, (4S)-4-({4-[(3R)-3-(morpholin-4-yl)pyrrolidin-1-yl]-1-[3-(trifluoromethyl)phenyl]-1H-pyrazolo[3,4-d]pyrimidin-6-yl}amino)pyrrolidin-2-one]", "IC50": 78}, {"smiles": "CC(C)(O)CC1CCN(c2nc(N[C@@H]3CNC(=O)C3)nc3c2cnn3-c2cccc(C(F)(F)F)c2)CC1", "note": "[Example I-24, (4S)-4-({4-[4-(2-hydroxy-2-methylpropyl)piperidin-1-yl]-1-[3-(trifluoromethyl)phenyl]-1H-pyrazolo[3,4-d]pyrimidin-6-yl}amino)pyrrolidin-2-one]", "IC50": 7.08}, {"smiles": "CN1CC[C@@H](Nc2nc(N3CCC(CC(C)(C)O)CC3)c3cnn(-c4cccc(C(F)(F)F)c4)c3n2)C1", "note": "[Example I-25-1, 2-methyl-1-[1-(6-{[(3R)-1-methylpyrrolidin-3-yl]amino}-1-[3-(trifluoromethyl)phenyl]-1H-pyrazolo[3,4-d]pyrimidin-4-yl)piperidin-4-yl]propan-2-ol]", "IC50": 40.3}, {"smiles": "CN1CC[C@H](Nc2nc(N3CCC(CC(C)(C)O)CC3)c3cnn(-c4cccc(C(F)(F)F)c4)c3n2)C1", "note": "[Example I-25-2, 2-methyl-1-[1-(6-{[(3S)-1-methylpyrrolidin-3-yl]amino}-1-[3-(trifluoromethyl)phenyl]-1H-pyrazolo[3,4-d]pyrimidin-4-yl)piperidin-4-yl]propan-2-ol]", "IC50": 12}, {"smiles": "O=S1(=O)CCN(C2CN(c3nc(N[C@@H]4CCOC4)nc4c3cnn4-c3cccc(C(F)(F)F)c3)C2)CC1", "note": "[Example I-26-1, 4-[3-(1,1-dioxidothiomorpholin-4-yl)azetidin-1-yl]-N-[(3R)-tetrahydrofuran-3-yl]-1-[3-(trifluoromethyl)phenyl]-1H-pyrazolo[3,4-d]pyrimidin-6-amine]", "IC50": 37.3}, {"smiles": "O=S1(=O)CCN(C2CN(c3nc(N[C@H]4CCOC4)nc4c3cnn4-c3cccc(C(F)(F)F)c3)C2)CC1", "note": "[Example I-26-2, 4-[3-(1,1-dioxidothiomorpholin-4-yl)azetidin-1-yl]-N-[(3S)-tetrahydrofuran-3-yl]-1-[3-(trifluoromethyl)phenyl]-1H-pyrazolo[3,4-d]pyrimidin-6-amine]", "IC50": 57.8}, {"smiles": "O=C1C[C@H](Nc2nc(N3CCOCC3)c3cnn(-c4cccc(C(F)(F)F)c4)c3n2)CN1", "note": "[Example I-28, (4S)-4-({4-(morpholin-4-yl)-1-[3-(trifluoromethyl)phenyl]-1H-pyrazolo[3,4-d]pyrimidin-6-yl}amino)pyrrolidin-2-one]", "IC50": 23.9}, {"smiles": "O=C1C[C@H](Nc2nc(N3CC(O)C3)c3cnn(-c4cccc(C(F)(F)F)c4)c3n2)CN1", "note": "[Example I-32, (4S)-4-({4-(3-hydroxyazetidin-1-yl)-1-[3-(trifluoromethyl)phenyl]-1H-pyrazolo[3,4-d]pyrimidin-6-yl}amino)pyrrolidin-2-one]", "IC50": 28.7}]}]}
